Reference: patent US20240099304A1, “SYNERGISTIC HERBICIDAL COMPOSITIONS OF METAMIFOP” (Parijat Industries (India) Private Limited, priority 2021, published 2024)

How the values were obtained:
Format in all cases: in vivo
Cyanotis axillaris = test: Field efficacy on broad leaf weed in soybean, post-emergence foliar application
Description: (§1) As described in the Herbicide Handbook of the Weed Science Society of America, Ninth Edition, 2007, p. 429, “synergism” [is] an interaction of two or more factors such that the effect when combined is greater than the predicted effect based on the response to each factor applied separately. In the Colby method, the expected (or predicted) response of a combination of herbicides is calculated by taking the product of the observed response for each individual component of the combination when applied alone divided by 100 and subtracting this value from the sum of the observed response for each component while applied alone. An unexpected enhancement in efficacy of the combination is then determined by comparing the observed response of the combination to the expected (or predicted) response as calculated from the observed response of each individual component alone. If the observed response of the combination is greater than the expected (or predicted) response, or stated conversely, if the difference between the observed and expected response is greater than zero, then the combination is said to be synergistic or unexpectedly effective. (Colby, S. R., Weeds, 1967(15), p. 20-22). The Colby method required only a single dose of each herbicide applied alone and the mixture of both doses.
(§2) Synergy Study: The following formula was used to calculate the expected activity of mixtures containing active ingredients, A and B:
(§3) • A=Observed efficacy of active ingredient (combination of Metamifop and Imidazolinone herbicides) A at the same concentration as used in the mixture. • B=observed efficacy of active ingredient B at the same concentration as used in the mixture. However, following formula was used to calculate the expected activity of mixtures containing three active ingredients, A, B and C:
(§4) • A=observed efficacy of active ingredient (combination of Metamifop and Imidazolinone herbicides) A at the same concentration as used in the mixture. • B=observed efficacy of active ingredient B at the same concentration as used in the mixture. • C=observed efficacy of active ingredient C at the same concentration as used in the mixture.
(§5) EFFICACY STUDY: The field experiments were carried out to test the synergy of the combination Metamifop, Imazethapyr, and Imazamox in India at various locations like in MP, Maharashtra, Karnataka, and Telangana on farmer's field against soybean weeds during Kharif season. The experiment comprising of 15 treatments including premixed binary and ternary combinations along with their stand-alone molecule using a randomized block design replicated thrice. All the treatments were applied as post-emergence foliar application when the weeds reached to two to four leaf stage. The spray was conducted with the help of Battery-operated Knapsack sprayer. The percentage efficacy was calculated after 14 and 21 days after application of herbicides.
(§6) The weeds present in the experimental fields were echinochloa conola, echinochloa crusgalli, brachiaria euriciformis, rottboellia cochinchinensis, cynodon dactylon, parthenium hyterophorus, digera arvensis, cynotis axillaris, acalypha indica, Commelina benghalensis, celosia argentia, cyperus spp.

Parthenium hysterophorus = test: as above
Description: as §1, §2, §3, §4, §5, §6

Commelina benghalensis = test: as above
Description: as §1, §2, §3, §4, §5, §6

[1] = system: hard to kill broad leaf weeds; test: Field efficacy, summary on broad leaf weeds
Description: as §1, §5

Brachiaria eruciformis = test: Field efficacy on grass weed in soybean, post-emergence foliar application
Description: as §1, §2, §3, §4, §5, §6

[2] = system: Rottboellia cochinchinensis; test: as above
Description: as §1, §2, §3, §4, §5, §6

Echinochloa crusgalli = test: as above
Description: as §1, §2, §3, §4, §5, §6

Soybean = test: Phytotoxicity in Soybean, visual grading on 0-10 scale; set-up: key: visual phytotoxicity grade on 0-10 scale; conditions: Soybean
Description: as §5
Phytotoxic effect of herbicidal combination of Metamifop, Imazethapyr and Imazamox in soyabean: Table 5, 10 show the visual observations and grading on phytotoxicity which was recorded for leaf injury on tip/surface, Epinasty/Hyponasty, and wilting etc. on 0-10 scale (as below) at 1, 3, 7, 14 and 21 days after application of the present herbicidal composition.

COCc1cnc(C2=NC(C)(C(C)C)C(=O)N2)c(C(=O)O)c1 (centres unmarked) [Imazamox]
% Weed control burn down symptoms generation Observed (Cyanotis axillaris; 14 DAA, Imazamox 20 gm ai/ha): 0% | % Weed control burn down symptoms generation Observed (Cyanotis axillaris; 14 DAA, Imazamox 30 gm ai/ha): 0% | % Weed control burn down symptoms generation Observed (Cyanotis axillaris; 14 DAA, Imazamox 35 gm ai/ha): 0% | % Weed control burn down symptoms generation Observed (Cyanotis axillaris; 21 DAA, Imazamox 20 gm ai/ha): 0% | % Weed control burn down symptoms generation Observed (Cyanotis axillaris; 21 DAA, Imazamox 30 gm ai/ha): 0% | % Weed control burn down symptoms generation Observed (Cyanotis axillaris; 21 DAA, Imazamox 35 gm ai/ha): 0% | % Weed control burn down symptoms generation Observed (Parthenium hysterophorus; 14 DAA, Imazamox 20 gm ai/ha): 0% | % Weed control burn down symptoms generation Observed (Parthenium hysterophorus; 14 DAA, Imazamox 30 gm ai/ha): 0% | % Weed control burn down symptoms generation Observed (Parthenium hysterophorus; 14 DAA, Imazamox 35 gm ai/ha): 0% | % Weed control burn down symptoms generation Observed (Parthenium hysterophorus; 21 DAA, Imazamox 20 gm ai/ha): 0% | % Weed control burn down symptoms generation Observed (Parthenium hysterophorus; 21 DAA, Imazamox 30 gm ai/ha): 0% | % Weed control burn down symptoms generation Observed (Parthenium hysterophorus; 21 DAA, Imazamox 35 gm ai/ha): 0% | % Weed control burn down symptoms generation Observed (Commelina benghalensis; 14 DAA, Imazamox 20 gm ai/ha): 0% | % Weed control burn down symptoms generation Observed (Commelina benghalensis; 14 DAA, Imazamox 30 gm ai/ha): 4% | % Weed control burn down symptoms generation Observed (Commelina benghalensis; 14 DAA, Imazamox 35 gm ai/ha): 6% | % Weed control burn down symptoms generation Observed (Commelina benghalensis; 21 DAA, Imazamox 20 gm ai/ha): 0% | % Weed control burn down symptoms generation Observed (Commelina benghalensis; 21 DAA, Imazamox 30 gm ai/ha): 0% | % Weed control burn down symptoms generation Observed (Commelina benghalensis; 21 DAA, Imazamox 35 gm ai/ha): 0% | Control on targeted weeds, applied alone ([1]; at 14 days): no or very less control | Control on targeted weeds, applied alone ([1]; at 21 days): no or very less control | % Weed control burn down symptoms generation Observed (Brachiaria eruciformis; 14 DAA, Imazamox 20 gm ai/ha): 0% | % Weed control burn down symptoms generation Observed (Brachiaria eruciformis; 14 DAA, Imazamox 30 gm ai/ha): 0% | % Weed control burn down symptoms generation Observed (Brachiaria eruciformis; 14 DAA, Imazamox 35 gm ai/ha): 0% | % Weed control burn down symptoms generation Observed (Brachiaria eruciformis; 21 DAA, Imazamox 20 gm ai/ha): 0% | % Weed control burn down symptoms generation Observed (Brachiaria eruciformis; 21 DAA, Imazamox 30 gm ai/ha): 0% | % Weed control burn down symptoms generation Observed (Brachiaria eruciformis; 21 DAA, Imazamox 35 gm ai/ha): 0% | % Weed control burn down symptoms generation Observed ([2]; 14 DAA, Imazamox 20 gm ai/ha): 0% | % Weed control burn down symptoms generation Observed ([2]; 14 DAA, Imazamox 30 gm ai/ha): 0% | % Weed control burn down symptoms generation Observed ([2]; 14 DAA, Imazamox 35 gm ai/ha): 0% | % Weed control burn down symptoms generation Observed ([2]; 21 DAA, Imazamox 20 gm ai/ha): 0% | % Weed control burn down symptoms generation Observed ([2]; 21 DAA, Imazamox 30 gm ai/ha): 0% | % Weed control burn down symptoms generation Observed ([2]; 21 DAA, Imazamox 35 gm ai/ha): 0% | % Weed control burn down symptoms generation Observed (Echinochloa crusgalli; 14 DAA, Imazamox 20 gm ai/ha): 0% | % Weed control burn down symptoms generation Observed (Echinochloa crusgalli; 14 DAA, Imazamox 30 gm ai/ha): 0% | % Weed control burn down symptoms generation Observed (Echinochloa crusgalli; 14 DAA, Imazamox 35 gm ai/ha): 0% | % Weed control burn down symptoms generation Observed (Echinochloa crusgalli; 21 DAA, Imazamox 20 gm ai/ha): 0% | % Weed control burn down symptoms generation Observed (Echinochloa crusgalli; 21 DAA, Imazamox 30 gm ai/ha): 0% | % Weed control burn down symptoms generation Observed (Echinochloa crusgalli; 21 DAA, Imazamox 35 gm ai/ha): 0% | Phytotoxicity score (Soybean; 1 DAA, Imazamox 20 gm ai/ha): 0 | Phytotoxicity score (Soybean; 1 DAA, Imazamox 30 gm ai/ha): 0 | Phytotoxicity score (Soybean; 1 DAA, Imazamox 35 gm ai/ha): 0 | Phytotoxicity score (Soybean; 3 DAA, Imazamox 20 gm ai/ha): 0 | Phytotoxicity score (Soybean; 3 DAA, Imazamox 30 gm ai/ha): 0 | Phytotoxicity score (Soybean; 3 DAA, Imazamox 35 gm ai/ha): 0 | Phytotoxicity score (Soybean; 7 DAA, Imazamox 20 gm ai/ha): 0 | Phytotoxicity score (Soybean; 7 DAA, Imazamox 30 gm ai/ha): 0 | Phytotoxicity score (Soybean; 7 DAA, Imazamox 35 gm ai/ha): 0 | Phytotoxicity score (Soybean; 14 DAA, Imazamox 20 gm ai/ha): 0 | Phytotoxicity score (Soybean; 14 DAA, Imazamox 30 gm ai/ha): 0 | Phytotoxicity score (Soybean; 14 DAA, Imazamox 35 gm ai/ha): 0 | Phytotoxicity score (Soybean; 21 DAA, Imazamox 20 gm ai/ha): 0 | Phytotoxicity score (Soybean; 21 DAA, Imazamox 30 gm ai/ha): 0 | Phytotoxicity score (Soybean; 21 DAA, Imazamox 35 gm ai/ha): 0

C[C@@H](Oc1ccc(Oc2nc3ccc(Cl)cc3o2)cc1)C(=O)N(C)c1ccccc1F [Metamifop]
% Weed control burn down symptoms generation Observed (Cyanotis axillaris; 14 DAA, Metamifop 80 gm ai/ha): 0% | % Weed control burn down symptoms generation Observed (Cyanotis axillaris; 14 DAA, Metamifop 90 gm ai/ha): 0% | % Weed control burn down symptoms generation Observed (Cyanotis axillaris; 21 DAA, Metamifop 80 gm ai/ha): 0% | % Weed control burn down symptoms generation Observed (Cyanotis axillaris; 21 DAA, Metamifop 90 gm ai/ha): 0% | % Weed control burn down symptoms generation Observed (Parthenium hysterophorus; 14 DAA, Metamifop 80 gm ai/ha): 0% | % Weed control burn down symptoms generation Observed (Parthenium hysterophorus; 14 DAA, Metamifop 90 gm ai/ha): 0% | % Weed control burn down symptoms generation Observed (Parthenium hysterophorus; 21 DAA, Metamifop 80 gm ai/ha): 0% | % Weed control burn down symptoms generation Observed (Parthenium hysterophorus; 21 DAA, Metamifop 90 gm ai/ha): 0% | % Weed control burn down symptoms generation Observed (Commelina benghalensis; 14 DAA, Metamifop 80 gm ai/ha): 0% | % Weed control burn down symptoms generation Observed (Commelina benghalensis; 14 DAA, Metamifop 90 gm ai/ha): 0% | % Weed control burn down symptoms generation Observed (Commelina benghalensis; 21 DAA, Metamifop 80 gm ai/ha): 0% | % Weed control burn down symptoms generation Observed (Commelina benghalensis; 21 DAA, Metamifop 90 gm ai/ha): 0% | Control on targeted weeds, applied alone ([1]; at 14 days): no or very less control | Control on targeted weeds, applied alone ([1]; at 21 days): no or very less control | % Weed control burn down symptoms generation Observed (Brachiaria eruciformis; 14 DAA, Metamifop 80 gm ai/ha): 84% | % Weed control burn down symptoms generation Observed (Brachiaria eruciformis; 14 DAA, Metamifop 90 gm ai/ha): 88% | % Weed control burn down symptoms generation Observed (Brachiaria eruciformis; 21 DAA, Metamifop 80 gm ai/ha): 78% | % Weed control burn down symptoms generation Observed (Brachiaria eruciformis; 21 DAA, Metamifop 90 gm ai/ha): 81% | % Weed control burn down symptoms generation Observed ([2]; 14 DAA, Metamifop 80 gm ai/ha): 67% | % Weed control burn down symptoms generation Observed ([2]; 14 DAA, Metamifop 90 gm ai/ha): 70% | % Weed control burn down symptoms generation Observed ([2]; 21 DAA, Metamifop 80 gm ai/ha): 70% | % Weed control burn down symptoms generation Observed ([2]; 21 DAA, Metamifop 90 gm ai/ha): 72% | % Weed control burn down symptoms generation Observed (Echinochloa crusgalli; 14 DAA, Metamifop 80 gm ai/ha): 80% | % Weed control burn down symptoms generation Observed (Echinochloa crusgalli; 14 DAA, Metamifop 90 gm ai/ha): 83% | % Weed control burn down symptoms generation Observed (Echinochloa crusgalli; 21 DAA, Metamifop 80 gm ai/ha): 74% | % Weed control burn down symptoms generation Observed (Echinochloa crusgalli; 21 DAA, Metamifop 90 gm ai/ha): 77% | Phytotoxicity score (Soybean; 1 DAA, Metamifop 80 gm ai/ha): 0 | Phytotoxicity score (Soybean; 1 DAA, Metamifop 90 gm ai/ha): 0 | Phytotoxicity score (Soybean; 3 DAA, Metamifop 80 gm ai/ha): 0 | Phytotoxicity score (Soybean; 3 DAA, Metamifop 90 gm ai/ha): 0 | Phytotoxicity score (Soybean; 7 DAA, Metamifop 80 gm ai/ha): 0 | Phytotoxicity score (Soybean; 7 DAA, Metamifop 90 gm ai/ha): 0 | Phytotoxicity score (Soybean; 14 DAA, Metamifop 80 gm ai/ha): 0 | Phytotoxicity score (Soybean; 14 DAA, Metamifop 90 gm ai/ha): 0 | Phytotoxicity score (Soybean; 21 DAA, Metamifop 80 gm ai/ha): 0 | Phytotoxicity score (Soybean; 21 DAA, Metamifop 90 gm ai/ha): 0
